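Compound exposure: 48 hours, 5 concentrations, 96-well plates. GI50 is the concentration that inhibits growth by half. The concentration for full growth arrest is given as TGI.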
Assays:
Assay in all cases: NCI-60 cell line screen, 48 h
SN12C renal = tested on: SN12C renal
RPMI-8226 leukemia = tested on: RPMI-8226 leukemia
M14 melanoma = tested on: M14 melanoma
OVCAR-8 ovarian = tested on: OVCAR-8 ovarian
UO-31 renal = tested on: UO-31 renal
SR leukemia = tested on: SR leukemia
EKVX NSCLC = tested on: EKVX NSCLC
HOP-62 NSCLC = tested on: HOP-62 NSCLC
SK-MEL-2 melanoma = tested on: SK-MEL-2 melanoma
OVCAR-5 ovarian = tested on: OVCAR-5 ovarian

| SMILES | GI50 (SN12C renal) | TGI (SN12C renal) | GI50 (RPMI-8226 leukemia) | TGI (RPMI-8226 leukemia) | GI50 (M14 melanoma) | TGI (M14 melanoma) | GI50 (OVCAR-8 ovarian) | TGI (OVCAR-8 ovarian) | GI50 (UO-31 renal) | TGI (UO-31 renal) | GI50 (SR leukemia) | TGI (SR leukemia) | GI50 (EKVX NSCLC) | TGI (EKVX NSCLC) | GI50 (HOP-62 NSCLC) | TGI (HOP-62 NSCLC) | GI50 (SK-MEL-2 melanoma) | TGI (SK-MEL-2 melanoma) | GI50 (OVCAR-5 ovarian) | TGI (OVCAR-5 ovarian) |
| --- | --- | --- | --- | --- | --- | --- | --- | --- | --- | --- | --- | --- | --- | --- | --- | --- | --- | --- | --- | --- |
| NCCN1CCN(c2nccc(-c3ccc4ccccc4c3)n2)CC1 | 1.71 µM | 3.81 µM | 2.08 µM | 5.72 µM | 1.89 µM | 3.54 µM | 2.25 µM | 5.6 µM | 1.5 µM | 2.96 µM | 1.87 µM | 6.11 µM | 1.83 µM | 4.08 µM | 1.76 µM | 3.28 µM | 2.21 µM | 4.36 µM | 1.85 µM | 4.04 µM |
| CC(=O)n1c(-c2ccc(Cl)cc2)nc2c(c1=O)C(c1ccc(Cl)cc1)c1sc3c(Cl)cccc3c1O2 (stereo not given) | 0.715 µM | 2.56 µM | 0.504 µM | 4.75 µM | 0.3 µM | 1.24 µM | 0.626 µM | 3.02 µM | 0.551 µM | 2.2 µM | 0.436 µM | 3.95 µM | 0.926 µM | 3.71 µM | 0.374 µM | 1.76 µM | 0.482 µM | 2.15 µM | 1.72 µM | 4.31 µM |
| Cc1noc(C)c1-c1ccc2[nH]c(=O)n3c2c1OC[C@@H]3c1ccccn1 | 21.4 µM | > 100 µM | 0.267 µM | > 20.2 µM | 0.803 µM | > 100 µM | 11 µM | > 100 µM | 0.18 µM | > 100 µM | 0.267 µM | > 100 µM | 2.39 µM | > 100 µM | 0.482 µM | > 100 µM | > 89.5 µM | > 100 µM | 5.87 µM | > 100 µM |
| O=C1N[C@@H](O)[C@@H]2ON=C(c3ccccc3)[C@H]12 | – | > 100 µM | – | > 100 µM | – | > 100 µM | – | > 100 µM | – | > 100 µM | – | > 100 µM | – | > 100 µM | – | > 100 µM | – | > 100 µM | – | > 100 µM |
| COc1ccc2c(-c3cc4ccccc4o3)cc(=O)oc2c1 | – | > 100 µM | – | > 100 µM | – | > 100 µM | – | > 100 µM | – | 65.6 µM | – | > 100 µM | – | > 100 µM | – | 46.7 µM | – | > 100 µM | – | > 100 µM |
| Cc1c(-c2nc(N)nc(C3CC3)c2C)nc(N)nc1C1CC1 | – | > 100 µM | – | > 100 µM | – | > 100 µM | – | > 100 µM | – | > 100 µM | – | > 100 µM | – | > 100 µM | – | > 100 µM | – | > 100 µM | – | > 100 µM |
| COc1ccc(C(=O)C(C(=O)CCC(=O)Nc2cccc(C(F)(F)F)c2)c2ccccc2)cc1 (stereo not given) | – | > 100 µM | – | > 100 µM | – | > 100 µM | – | > 100 µM | – | > 100 µM | – | > 100 µM | – | > 100 µM | – | > 100 µM | – | > 100 µM | – | > 100 µM |

From PubChem BioAssay (NCI)
